Each compound was assayed against Voltage-gated inwardly rectifying potassium channel KCNH2 (Homo sapiens, UniProt Q12809) (assay: Inhibitory concentration against IKr potassium channel).
Voltage-gated inwardly rectifying potassium channel KCNH2, sequence (Q12809 whole entry): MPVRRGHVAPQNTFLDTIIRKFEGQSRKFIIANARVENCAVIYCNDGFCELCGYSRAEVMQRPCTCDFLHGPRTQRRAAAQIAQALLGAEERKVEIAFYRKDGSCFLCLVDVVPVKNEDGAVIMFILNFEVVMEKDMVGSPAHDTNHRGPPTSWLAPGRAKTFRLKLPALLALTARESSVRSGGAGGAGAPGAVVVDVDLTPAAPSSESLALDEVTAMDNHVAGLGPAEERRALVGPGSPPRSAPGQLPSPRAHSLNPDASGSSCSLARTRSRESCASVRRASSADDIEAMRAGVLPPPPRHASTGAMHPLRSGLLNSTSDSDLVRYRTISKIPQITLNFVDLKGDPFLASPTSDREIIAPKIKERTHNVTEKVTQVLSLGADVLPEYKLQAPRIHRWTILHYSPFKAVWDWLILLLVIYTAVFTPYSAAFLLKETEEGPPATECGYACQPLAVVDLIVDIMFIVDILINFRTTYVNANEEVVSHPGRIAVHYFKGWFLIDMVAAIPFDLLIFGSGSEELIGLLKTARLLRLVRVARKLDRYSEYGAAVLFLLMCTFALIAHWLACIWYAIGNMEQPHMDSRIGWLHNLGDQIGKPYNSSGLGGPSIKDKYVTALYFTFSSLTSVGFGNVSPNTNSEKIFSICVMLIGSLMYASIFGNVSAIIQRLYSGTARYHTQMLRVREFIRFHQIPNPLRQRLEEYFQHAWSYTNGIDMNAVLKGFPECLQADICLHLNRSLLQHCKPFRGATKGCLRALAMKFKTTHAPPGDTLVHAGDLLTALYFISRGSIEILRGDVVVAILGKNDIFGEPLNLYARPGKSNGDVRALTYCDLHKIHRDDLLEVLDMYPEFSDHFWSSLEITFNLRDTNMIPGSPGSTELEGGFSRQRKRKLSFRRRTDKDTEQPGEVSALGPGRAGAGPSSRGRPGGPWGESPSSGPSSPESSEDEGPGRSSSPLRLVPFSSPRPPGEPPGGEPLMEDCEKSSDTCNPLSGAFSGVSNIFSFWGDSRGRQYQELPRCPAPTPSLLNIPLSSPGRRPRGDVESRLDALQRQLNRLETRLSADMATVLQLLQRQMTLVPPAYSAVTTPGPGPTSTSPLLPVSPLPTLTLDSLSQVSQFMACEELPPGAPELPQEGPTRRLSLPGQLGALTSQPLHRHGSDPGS
`CCCCCCCN(CC)CCCCc1ccc([N+](=O)[O-])cc1` was tested, and the IC50 was 0.01 µM.
`COc1ccc(CCNCCCNC(=O)c2ccc([N+](=O)[O-])cc2)cc1OC` was tested, and the IC50 was 0.42 µM.
Work on `COc1cc2c(cc1OC)C(Cc1ccc(O)c(Oc3ccc(C[C@@H]4c5cc(OC)c(OC)cc5CCN4C)cc3)c1)N(C)CC2` (single isomer, unassigned) [DAURICINE] yielded an IC50 of 16 µM.
Compound `CCCNCC(O)COc1ccc(O)cc1C(=O)CCc1ccccc1` (stereo not drawn) [5-HYDROXY PROPAFENONE] has an IC50 of 40 µM.
Compound `CN1CCN(CCCCN2C(=O)CN(/N=C/c3ccc(-c4ccc(Cl)cc4)o3)C2=O)CC1` [AZIMILIDE] has an IC50 of 0.4 µM.
`Nc1ccncc1` [DALFAMPRIDINE] gave an IC50 of 4400 µM.
Work on `CCCCc1oc2ccc(NS(C)(=O)=O)cc2c1C(=O)c1ccc(OCCCN(CCCC)CCCC)cc1` [DRONEDARONE] yielded an IC50 of 3 µM.
With `CCCCN(CCCC)CC(O)c1cc(Cl)cc2c1-c1ccc(Cl)cc1C2=Cc1ccc(Cl)cc1` (stereo not drawn) [LUMEFANTRINE] the IC50 was 8.1 µM.
`NCC(O)COc1ccccc1C(=O)CCc1ccccc1` (stereo not drawn) [N-DEPROPYL-PROPAPHENONE] showed an IC50 of 44 µM.
`CCC1(c2ccccc2)C(=O)NC(=O)NC1=O` [PHENOBARBITAL] showed an IC50 of 3000 µM.
Compound `COc1ccc(CN(CCN(C)C)c2ccccn2)cc1` [PYRILAMINE] has an IC50 of 1.1 µM.
Work on `COc1ccc(C2CCN(CC[C@H]3CCOc4ccccc43)CC2)cc1OC` [TERIKALANT] yielded an IC50 of 0.03 µM.
In the case of `COc1ccc(C(=O)N2CCN(c3ccc4c(c3)CCC(=O)N4)CC2)cc1OC` [VESNARINONE], the IC50 is reported as 18 µM.

Source: ChEMBL document CHEMBL1137856, “The pharmacophore hypotheses of I(Kr) potassium channel blockers: novel class III antiarrhythmic agents” (Bioorg Med Chem Lett, 2004)
